Assay results: ChEMBL document CHEMBL4354807, “Natural Product Albiziabioside A Conjugated with Pyruvate Dehydrogenase Kinase Inhibitor Dichloroacetate To Induce Apoptosis-Ferroptosis-M2-TAMs Polarization for Combined Cancer Therapy” (J Med Chem, 2019)
The source made the active and inactive calls. The calls are words filed in the database; no cut-off is given here.

What was measured:
[1] = Stability of compound in PBS at pH 7.4 and 37 degree C measured after 2 hrs by HPLC analysis; type: physicochemical; settings: buffer, pH 7.4, 2 h
[2] = tested on: MCF7; assay: Induction of metabolic reversal from aerobic glycolysis to oxidative phosphorylation in human MCF7 cells assessed as effect on extracellular acidification rate at 2 uM pretreated for 4 hrs followed by glucose addition after 25 mins followed by subsequent addition of oligomycin A after 50 mins followed by 2-DG addition after 80 mins by seahorse XF24 extracellular flux analyzer assay; type: functional, cell-based
[3] = Drug metabolism assessed as carboxylesterase (unknown origin)-mediated compound cleavage at aniline-amide bond after 2 hrs by HPLC analysis; type: ADME; settings: human
[4] = tested on: MCF7; assay: Downregulation of GPX4 expression in human MCF7 cells at 2 uM after 48 hrs by Western blot analysis; type: functional, cell-based
[5] = tested on: MCF7; assay: Synergistic anticancer activity against human MCF7 cells overexpressing assessed as combination index after 72 hrs by MTT assay; type: functional
[6] = Selectivity index, ratio IC50 for cytotoxicity against human LO2 cells assessed as reduction in cell viability after 72 hrs by MTT assay to IC50 for anticancer activity against human HCT116 cells assessed as reduction in cell viability after 72 hrs by MTT assay; type: toxicity, cell-based; settings: LO2 cells versus HCT116 cells, read-out: Ratio IC50
[7] = Selectivity index, ratio IC50 for cytotoxicity against human HBMEC cells assessed as reduction in cell viability after 72 hrs by MTT assay to IC50 for anticancer activity against human A375 cells assessed as reduction in cell viability after 72 hrs by MTT assay
[8] = tested on: MCF7; assay: Induction of metabolic reversal from aerobic glycolysis to oxidative phosphorylation in human MCF7 cells assessed as […] at 2 uM pretreated for 3 hrs followed by oligomycin A addition after 25 mins followed by subsequent addition of FCCP after 50 mins followed by antimycin/rotenone addition after 80 mins by seahorse XF24 extracellular flux analyzer assay; type: functional, cell-based
[9] = Selectivity index, ratio IC50 for cytotoxicity against human LO2 cells assessed as reduction in cell viability after 72 hrs by MTT assay to IC50 for anticancer activity against human MCF7 cells assessed as reduction in cell viability after 72 hrs by MTT assay; type: toxicity, cell-based; settings: LO2 cells versus MCF7 cells, read-out: Ratio IC50
[10] = tested on: MCF7; assay: Induction of apoptosis in human MCF7 cells assessed as viable cells at 2 uM after 24 hrs by Annexin V-FITC/propidium iodide staining-based flow cytometric analysis (reference value: 93.39 %); type: functional; settings: MCF7, 24 h, read-out: Activity
[11] = tested on: 4T1; assay: Induction of M2-TAM polarization in mouse 4T1 cells assessed as decrease in Arg1 mRNA expression at 2 uM after 48 hrs by Western blot analysis relative to control; type: functional
[12] = tested on: MCF7; assay: Induction of apoptosis in human MCF7 cells assessed as necrotic cells at 2 uM after 24 hrs by Annexin V-FITC/propidium iodide staining-based flow cytometric analysis (reference value: 0.10 %); type: functional
[13] = tested on: 4T1; assay: Synergistic anticancer activity against mouse 4T1 cells expressing assessed as combination index after 72 hrs by MTT assay; type: functional
[14] = tested on: Mus musculus; assay: Modulation of tumor immunosuppressive activity in BALB/c mouse xenografted with mouse 4T1 cells assessed as increase in IL12 expression in serum administered intratumorally every other day for 14 days measured at 2 days post-last dose by ELISA; type: functional, organism-based
[15] = tested on: Mus musculus; assay: Modulation of tumor immunosuppressive activity in BALB/c mouse xenografted with mouse 4T1 cells assessed as increase in IL12 expression in tumor administered intratumorally every other day for 14 days measured at 2 days post-last dose by ELISA; type: functional, organism-based
[16] = Toxicity in BALB/c nude mouse xenografted with human MCF7 cells assessed as effect on AST level in blood at 2 mg/kg, iv administered every 2 days for 2 weeks measured after 14 days; type: organism-based; settings: in vivo, 336 h
[17] = tested on: Mus musculus; assay: Modulation of tumor immunosuppressive activity in BALB/c mouse xenografted with mouse 4T1 cells assessed as decrease in IL10 expression in tumor administered intratumorally every other day for 14 days measured at 2 days post-last dose by ELISA; type: functional, organism-based
[18] = tested on: 4T1; assay: Inhibition of glycolysis in mouse 4T1 cells expressing PDK assessed as reduction in extracellular lactate level at 2 uM after 6 hrs by microplate reader assay; type: functional, cell-based
[19] = tested on: 4T1; assay: Reversal of immunosuppression against mouse 4T1 cells implanted in BALB/c mouse assessed as growth inhibition of distal tumor at 2 mg/kg administered intratumorally every 2 days for 2 weeks measured after 14 days; type: functional, organism-based
[20] = tested on: 4T1; assay: Induction of M2-TAM polarization in mouse 4T1 cells assessed as decrease in Arg1 protein level at 2 uM after 48 hrs by Western blot analysis relative to control; type: functional
[21] = tested on: MCF7; assay: Induction of apoptosis in human MCF7 cells assessed as downregulation of Bcl2 expression at 2 uM after 48 hrs by Western blot analysis relative to control; type: functional
[22] = Toxicity in BALB/c nude mouse xenografted with human MCF7 cells assessed as effect on ALT level in blood at 2 mg/kg, iv administered every 2 days for 2 weeks measured after 14 days; type: organism-based; settings: in vivo, 336 h
[23] = Selectivity index, ratio IC50 for cytotoxicity against human HBMEC cells assessed as reduction in cell viability after 72 hrs by MTT assay to IC50 for anticancer activity against human MCF7 cells assessed as reduction in cell viability after 72 hrs by MTT assay
[24] = tested on: MCF7; assay: Inhibition of glycolysis in human MCF7 cells assessed as reduction in intracellular lactate level at 2 uM after 6 hrs by microplate reader assay; type: functional, cell-based
[25] = Toxicity in BALB/c nude mouse xenografted with human MCF7 cells assessed as effect on body weight at 2 mg/kg, iv administered every 2 days for 2 weeks measured after 14 days; type: organism-based; settings: in vivo, 336 h
[26] = tested on: 4T1; assay: Inhibition of glycolysis in mouse 4T1 cells expressing PDK assessed as reduction in intracellular lactate level at 2 uM after 6 hrs by microplate reader assay; type: functional, cell-based
[27] = Cytotoxicity against human HBMEC cells assessed as combination index after 72 hrs by MTT assay; type: cell-based
[28] = tested on: MCF7; assay: Induction of apoptosis in human MCF7 cells assessed as increase in caspase 9 expression at 2 uM after 48 hrs by Western blot analysis relative to control; type: functional
[29] = tested on: 4T1; assay: Induction of M2-TAM polarization in mouse 4T1 cells assessed as decrease in MRC1 protein level at 2 uM after 48 hrs by Western blot analysis relative to control; type: functional
[30] = Toxicity in BALB/c nude mouse xenografted with human MCF7 cells assessed as effect on ALP level in blood at 2 mg/kg, iv administered every 2 days for 2 weeks measured after 14 days; type: organism-based; settings: in vivo, 336 h
[31] = tested on: MCF7; assay: Induction of apoptosis in human MCF7 cells assessed as late apoptotic cells at 2 uM after 24 hrs by Annexin V-FITC/propidium iodide staining-based flow cytometric analysis (reference value: 2.97 %); type: functional
[32] = tested on: Mus musculus; assay: Modulation of tumor immunosuppressive activity in BALB/c mouse xenografted with mouse 4T1 cells assessed as increase in TNFalpha expression in serum administered intratumorally every other day for 14 days measured at 2 days post-last dose by ELISA; type: functional, organism-based
[33] = tested on: 4T1; assay: Reversal of immunosuppression against mouse 4T1 cells implanted in BALB/c mouse assessed as reduction in tumor volume at 2 mg/kg administered intratumorally every 2 days for 2 weeks measured after 14 days; type: functional

**Q.** For `CC1(C)CC[C@]2(C(=O)O)CC[C@]3(C)C(=CC[C@@H]4[C@@]5(C)CC[C@H](O[C@@H]6O[C@H](CO[C@@H]7OC[C@H](O)[C@H](O)[C@H]7O)[C@@H](O)[C@H](O)[C@H]6NC(=O)C(Cl)Cl)C(C)(C)[C@@H]5CC[C@]43C)[C@@H]2C1`, which Stability [1] is on record?
**A.** The Stability was “Stable”.

**Q.** What about the Activity [2] of the same molecule?
**A.** The Activity was “Active”.

**Q.** What about the Drug metabolism [3] of the same molecule?
**A.** Its Drug metabolism is “Metabolite_Detected”.

**Q.** And the Activity [4]?
**A.** The Activity was “Active”.

**Q.** And the CI [5]?
**A.** Its CI is 0.03.

**Q.** And the selectivity ratio at 72 h [6]?
**A.** The selectivity ratio at 72 h was 12.7.

**Q.** And the “Ratio IC50” value [7]?
**A.** Its value is 10.11.

**Q.** And the Activity [8]?
**A.** The Activity was “inactive”.

**Q.** What about the selectivity ratio at 72 h [9] of the same molecule?
**A.** The selectivity ratio at 72 h was 124.

**Q.** And the viability at 2 µM [10]?
**A.** The viability at 2 µM was 47%.

**Q.** And the “fold change (FC)” value [11]?
**A.** Its value is 2.1.

**Q.** What about the Activity [12] of the same molecule?
**A.** Its Activity is 4.86%.

**Q.** And the CI [13]?
**A.** Its CI is 0.09.

**Q.** And the Activity [14]?
**A.** Its Activity is “Active”.

**Q.** And the Activity [15]?
**A.** The Activity was “Active”.

**Q.** And the Activity [16]?
**A.** Its Activity is “Non-Toxic”.

**Q.** What about the Activity [17] of the same molecule?
**A.** The Activity was “Active”.

**Q.** And the inhibition [18]?
**A.** Its inhibition is “Active”.

**Q.** And the Activity [19]?
**A.** Its Activity is “Active”.

**Q.** What about the “fold change (FC)” value [20] of the same molecule?
**A.** The value was 2.1.

**Q.** What about the “fold change (FC)” value [21] of the same molecule?
**A.** Its value is 0.5.

**Q.** What about the Activity [22] of the same molecule?
**A.** The Activity was “Non-Toxic”.

**Q.** And the “Ratio IC50” value [23]?
**A.** The value was 88.83.

**Q.** What about the inhibition [24] of the same molecule?
**A.** The inhibition was “Active”.

**Q.** And the Activity [25]?
**A.** Its Activity is “Non-Toxic”.

**Q.** What about the inhibition [26] of the same molecule?
**A.** Its inhibition is “Active”.

**Q.** What about the CI [27] of the same molecule?
**A.** The CI was 1.41.

**Q.** And the “fold change (FC)” value [28]?
**A.** The value was 6.

**Q.** And the “fold change (FC)” value [29]?
**A.** The value was 3.4.

**Q.** And the Activity [30]?
**A.** The Activity was “Non-Toxic”.

**Q.** What about the Activity [31] of the same molecule?
**A.** The Activity was 22.92%.

**Q.** What about the Activity [32] of the same molecule?
**A.** Its Activity is “Active”.

**Q.** And the Activity [33]?
**A.** Its Activity is less than 100 mm3.
